Laboratory results from patent US20250171438A1 (Agios Pharmaceuticals, Inc., priority 2022, published 2025).

Target: T1, human PAH with the R408W mutation (Homo sapiens, UniProt P00439, R408W)
T1 construct: expressed in transfected cells
T1 sequence (P00439 1-452 R408W): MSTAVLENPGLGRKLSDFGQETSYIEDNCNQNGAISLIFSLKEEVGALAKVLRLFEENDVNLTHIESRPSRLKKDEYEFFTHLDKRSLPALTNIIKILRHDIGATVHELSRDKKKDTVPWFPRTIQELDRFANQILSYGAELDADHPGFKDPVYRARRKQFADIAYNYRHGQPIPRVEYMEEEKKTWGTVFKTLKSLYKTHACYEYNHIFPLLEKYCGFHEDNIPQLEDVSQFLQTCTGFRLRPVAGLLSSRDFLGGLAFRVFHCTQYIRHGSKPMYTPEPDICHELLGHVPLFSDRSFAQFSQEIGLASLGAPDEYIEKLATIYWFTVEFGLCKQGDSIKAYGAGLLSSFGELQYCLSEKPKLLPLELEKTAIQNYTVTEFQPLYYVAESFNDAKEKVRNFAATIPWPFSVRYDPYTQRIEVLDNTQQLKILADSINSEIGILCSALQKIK
Assay: Cell Based Phenylalanine Flux Assay
Conditions: A375 cells expressing human R408W PAH; 24 hrs compound incubation; 13C-Tyrosine by LC-MS; average where tested multiple times; read-out: AC50

Row | AC50 [nM] | SMILES
1 | 1000 to 5000 | O=C(c1ncn2ccccc12)N1CCc2[nH]cnc2[C@@H]1c1nc2cccc(F)c2s1 [Example 1267, (R)-(4-(7-fluorobenzo[d]thiazol-2-yl)-6,7-dihydro-1H-imidazo[4,5-c]pyridin-5(4H)-yl)(imidazo[1,5-a]pyridin-1-yl)methanone]
2 | < 500 | O=C(c1ncn2ccccc12)N1CCc2[nH]cnc2[C@H]1c1nc2cccc(F)c2s1 [Example 1268, (S)-(4-(7-fluorobenzo[d]thiazol-2-yl)-6,7-dihydro-1H-imidazo[4,5-c]pyridin-5(4H)-yl)(imidazo[1,5-a]pyridin-1-yl)methanone]
3 | 1000 to 5000 | O=C(c1nncs1)N1CCc2[nH]cnc2[C@@H]1c1nc2c(F)cccc2s1 [Example 1269, (R)-(4-(4-fluorobenzo[d]thiazol-2-yl)-6,7-dihydro-1H-imidazo[4,5-c]pyridin-5(4H)-yl)(1,3,4-thiadiazol-2-yl)methanone]
4 | 500 to 1000 | O=C(c1nncs1)N1CCc2[nH]cnc2[C@H]1c1nc2c(F)cccc2s1 [Example 1270, (S)-(4-(4-fluorobenzo[d]thiazol-2-yl)-6,7-dihydro-1H-imidazo[4,5-c]pyridin-5(4H)-yl)(1,3,4-thiadiazol-2-yl)methanone]
5 | > 5000 | O=C(CC1CC1(F)F)N1CCc2[nH]cnc2[C@@H]1c1nc2ccccc2s1 (stereo partly drawn) [Example 1272, 1-((R)-4-(benzo[d]thiazol-2-yl)-6,7-dihydro-1H-imidazo[4,5-c]pyridin-5(4H)-yl)-2-(2,2-difluorocyclopropyl)ethenone]
6 | > 5000 | O=C(CC1CC1(F)F)N1CCc2[nH]cnc2[C@@H]1c1nc2ccccc2s1 (stereo partly drawn) [Example 1273, 1-((R)-4-(benzo[d]thiazol-2-yl)-6,7-dihydro-1H-imidazo[4,5-c]pyridin-5(4H)-yl)-2-(2,2-difluorocyclopropyl)ethanone]
7 | 1000 to 5000 | c1ccc2sc([C@H]3c4nc[nH]c4CCN3CCC3CC3)nc2c1 [Example 1275, (R)-2-(5-(2-cyclopropylethyl)-4,5,6,7-tetrahydro-1H-imidazo[4,5-c]pyridin-4-yl)benzo[d]thiazole]
8 | < 500 | c1ccc2sc([C@@H]3c4nc[nH]c4CCN3CCC3CC3)nc2c1 [Example 1276, (S)-2-(5-(2-cyclopropylethyl)-4,5,6,7-tetrahydro-1H-imidazo[4,5-c]pyridin-4-yl)benzo[d]thiazole]
9 | < 500 | O=C(CC1CC(F)(F)C1)N1CCc2[nH]cnc2[C@H]1c1nc2ccccc2s1 [Example 1277]
10 | 1000 to 5000 | O=C(CC1CC(F)(F)C1)N1CCc2[nH]cnc2[C@@H]1c1nc2ccccc2s1 [Example 1278, (R)-1-(4-(benzo[d]thiazol-2-yl)-6,7-dihydro-1H-imidazo[4,5-c]pyridin-5(4H)-yl)-2-(3,3-difluorocyclobutyl)ethanone]
11 | 1000 to 5000 | O=C(c1ncco1)N1CCc2[nH]cnc2[C@H]1c1nc2cccc(F)c2s1 [Example 1279, (S)-(4-(7-fluorobenzo[d]thiazol-2-yl)-6,7-dihydro-1H-imidazo[4,5-c]pyridin-5(4H)-yl)(oxazol-2-yl)methanone]
12 | 1000 to 5000 | O=C(c1ncco1)N1CCc2[nH]cnc2[C@@H]1c1nc2cccc(F)c2s1 [Example 1280, (R)-(4-(7-fluorobenzo[d]thiazol-2-yl)-6,7-dihydro-1H-imidazo[4,5-c]pyridin-5(4H)-yl)(oxazol-2-yl)methanone]
13 | 500 to 1000 | O=C(c1cnn2ccc(Br)cc12)N1CCc2[nH]cnc2[C@H]1c1nc2cc(F)ccc2s1 [Example 1281]
14 | 1000 to 5000 | O=C(c1cnn2ccc(Br)cc12)N1CCc2[nH]cnc2[C@@H]1c1nc2cc(F)ccc2s1 [Example 1282, (R)-(5-bromopyrazolo [1,5-a]pyridin-3-yl)(4-(5-fluorobenzo[d]thiazol-2-yl)-6,7-dihydro-1H-imidazo[4,5-c]pyridin-5(4H)-yl)methanone]
15 | < 500 | O=C(c1cnn2ccc(Br)cc12)N1CCc2[nH]cnc2[C@H]1c1nc2cccc(F)c2s1 [Example 1283]
16 | 1000 to 5000 | O=C(c1cnn2ccc(Br)cc12)N1CCc2[nH]cnc2[C@@H]1c1nc2cccc(F)c2s1 [Example 1284, (R)-(5-bromopyrazolo[1,5-a]pyridin-3-yl)(4-(7-fluorobenzo[d]thiazol-2-yl)-6,7-dihydro-1H-imidazo[4,5-c]pyridin-5(4H)-yl)methanone]
17 | 500 to 1000 | Cc1ccc2sc([C@@H]3c4nc[nH]c4CCN3C(=O)c3cncs3)nc2c1 [Example 1293, (S)-(4-(5-methylbenzo[d]thiazol-2-yl)-6,7-dihydro-1H-imidazo[4,5-c]pyridin-5(4H)-yl)(thiazol-5-yl)methanone]
18 | 1000 to 5000 | Cc1ccc2sc([C@H]3c4nc[nH]c4CCN3C(=O)c3cncs3)nc2c1 [Example 1294, (R)-(4-(5-methylbenzo[d]thiazol-2-yl)-6,7-dihydro-1H-imidazo[4,5-c]pyridin-5(4H)-yl)(thiazol-5-yl)methanone]

Row | AC50 [nM] | SMILES
19 | 500 to 1000 | Cc1ccc2c(C(=O)N3CCc4[nH]cnc4[C@H]3c3nc4c(C)cccc4s3)cnn2c1 [Example 1295, (S)-(4-(4-methylbenzo[d]thiazol-2-yl)-6,7-dihydro-1H-imidazo[4,5-c]pyridin-5(4H)-yl)(6-methylpyrazolo[1,5-a]pyridin-3-yl)methanone]
20 | 1000 to 5000 | Cc1ccc2c(C(=O)N3CCc4[nH]cnc4[C@@H]3c3nc4c(C)cccc4s3)cnn2c1 [Example 1296, (R)-(4-(4-methylbenzo[d]thiazol-2-yl)-6,7-dihydro-1H-imidazo[4,5-c]pyridin-5(4H)-yl)(6-methylpyrazolo[1,5-a]pyridin-3-yl)methanone]
21 | 500 to 1000 | O=C(c1nc(Cl)cs1)N1CCc2[nH]cnc2[C@H]1c1nc2cc(F)ccc2s1 [Example 1297]
22 | 1000 to 5000 | O=C(c1nc(Cl)cs1)N1CCc2[nH]cnc2[C@@H]1c1nc2cc(F)ccc2s1 [Example 1298, (R)-(4-chlorothiazol-2-yl)(4-(5-fluorobenzo[d]thiazol-2-yl)-6,7-dihydro-1H-imidazo[4,5-c]pyridin-5(4H)-yl)methanone]
23 | 1000 to 5000 | O=C(c1nncs1)N1CCc2[nH]cnc2[C@H]1c1nc2cc(F)ccc2s1 [Example 1299, (S)-(4-(5-fluorobenzo[d]thiazol-2-yl)-6,7-dihydro-1H-imidazo[4,5-c]pyridin-5(4H)-yl)(1,3,4-thiadiazol-2-yl)methanone]
24 | 1000 to 5000 | O=C(c1nncs1)N1CCc2[nH]cnc2[C@@H]1c1nc2cc(F)ccc2s1 [Example 1300, (R)-(4-(5-fluorobenzo[d]thiazol-2-yl)-6,7-dihydro-1H-imidazo[4,5-c]pyridin-5(4H)-yl)(1,3,4-thiadiazol-2-yl)methanone]
25 | < 500 | O=C(c1cnn2ccc(Cl)cc12)N1CCc2[nH]cnc2[C@H]1c1nc2cccc(F)c2s1 [Example 1301]
26 | < 500 | O=C(c1cnn2ccc(Cl)cc12)N1CCc2[nH]cnc2[C@@H]1c1nc2cccc(F)c2s1 [Example 1302, (R)-(5-chloropyrazolo[1,5-a]pyridin-3-yl)(4-(7-fluorobenzo[d]thiazol-2-yl)-6,7-dihydro-1H-imidazo[4,5-c]pyridin-5(4H)-yl)methanone]
27 | 500 to 1000 | Cc1ccc2nc([C@@H]3c4nc[nH]c4CCN3C(=O)c3cncs3)sc2c1 [Example 1303, (S)-(4-(6-methylbenzo[d]thiazol-2-yl)-6,7-dihydro-1H-imidazo[4,5-c]pyridin-5(4H)-yl)(thiazol-5-yl)methanone]
28 | > 5000 | Cc1ccc2nc([C@H]3c4nc[nH]c4CCN3C(=O)c3cncs3)sc2c1 [Example 1304, (R)-(4-(6-methylbenzo[d]thiazol-2-yl)-6,7-dihydro-1H-imidazo[4,5-c]pyridin-5(4H)-yl)(thiazol-5-yl)methanone]
29 | 500 to 1000 | Cc1cccc2sc([C@@H]3c4nc[nH]c4CCN3C(=O)c3cncs3)nc12 [Example 1305, (S)-(4-(4-methylbenzo[d]thiazol-2-yl)-6,7-dihydro-1H-imidazo[4,5-c]pyridin-5(4H)-yl)(thiazol-5-yl)methanone]
30 | 1000 to 5000 | Cc1cccc2sc([C@H]3c4nc[nH]c4CCN3C(=O)c3cncs3)nc12 [Example 1306, (R)-(4-(4-methylbenzo[d]thiazol-2-yl)-6,7-dihydro-1H-imidazo[4,5-c]pyridin-5(4H)-yl)(thiazol-5-yl)methanone]
31 | < 500 | O=C(CC1CCC1)N1CCc2[nH]cnc2[C@H]1c1nc2ccccc2s1 [Example 1307]
32 | 1000 to 5000 | O=C(CC1CCC1)N1CCc2[nH]cnc2[C@@H]1c1nc2ccccc2s1 [Example 1308, (R)-1-(4-(benzo[d]thiazol-2-yl)-6,7-dihydro-1H-imidazo[4,5-c]pyridin-5(4H)-yl)-2-cyclobutylethanone]
33 | 500 to 1000 | COCc1ccc2c(C(=O)N3CCc4[nH]cnc4[C@H]3c3nc4ccccc4s3)cnn2c1 [Example 1309]
34 | > 5000 | COCc1ccc2c(C(=O)N3CCc4[nH]cnc4[C@@H]3c3nc4ccccc4s3)cnn2c1 [Example 1310, (R)-(4-(benzo[d]thiazol-2-yl)-6,7-dihydro-1H-imidazo[4,5-c]pyridin-5(4H)-yl)(6-(methoxymethyl)pyrazolo[1,5-a]pyridin-3-yl)methanone]
35 | 500 to 1000 | CN(C)Cc1ccc2c(C(=O)N3CCc4[nH]cnc4[C@H]3c3nc4ccccc4s3)cnn2c1 [Example 1311]
36 | > 5000 | CN(C)Cc1ccc2c(C(=O)N3CCc4[nH]cnc4[C@@H]3c3nc4ccccc4s3)cnn2c1 [Example 1312, (R)-(4-(benzo[d]thiazol-2-yl)-6,7-dihydro-1H-imidazo[4,5-c]pyridin-5(4H)-yl)(6-((dimethylamino)methyl)pyrazolo[1,5-a]pyridin-3-yl)methanone]
